The source of these data is PubChem BioAssay (NCI).

What all share (assay): NCI tumour cell line growth inhibition, 48 h
In experiment [1] the test system is EKVX NSCLC.
Experiment [2] deals with MALME-3M melanoma.
For experiment [3], the system named is MDA-MB-435.
In experiment [4] the test system is MOLT-4 leukemia.
Experiment [5] concerns OVCAR-3 ovarian.
The subject of experiment [6] is SF-268 CNS.
The test system of experiment [7] is SK-MEL-2 melanoma.
Experiment [8] has as its system SNB-19 CNS.
For experiment [9], the system named is SW-620 colon.
In experiment [10] the test system is RPMI-8226 leukemia.

Several values for one entry are separate records, joined by “and”; a condition that tells them apart may be missing. Equal values may be shown once.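 48-hour exposure; five concentrations; linearly interpolated endpoints. Here, GI50 denotes the concentration required for 50% inhibition of growth. At the TGI there is no net growth.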

Consider `Cc1nc2ccc(Br)cc2c(=O)n1-c1ccc(NC2OCC(O)C(O)C2O)cc1` (stereo not drawn), for which the TGI in experiment [1] is more than 100 µM; in [2] it was 65 µM and > 100 µM; in experiment [3], more than 100 µM; in experiment [4], more than 100 µM; in experiment [5], more than 100 µM; in [6], more than 100 µM. Moreover, the TGI in [7] was 66.3 µM and > 100 µM; in [8], more than 100 µM; in experiment [9], 47 µM and > 100 µM. The GI50 in experiment [2] was 23.2 µM and > 100 µM; in experiment [3], 36 µM and > 100 µM; in experiment [4] it was 19.6 µM and 71.2 µM; in experiment [5], 34.8 µM and > 100 µM; in experiment [7], 25.6 µM and > 100 µM; in experiment [9] it was 17.8 µM and > 100 µM.
As for `CSc1ncc(Br)c(Sc2nc(N)nc3nc[nH]c23)n1`, the GI50 in experiment [1] is 3.07 µM; in experiment [2], 3.34 µM; in experiment [3], 2.5 µM; in experiment [5] it was 3.32 µM; in experiment [6] it was 3.6 µM; in experiment [7], 1.12 µM. Besides, the GI50 in [8] was 22.3 µM; in [9] it was 4.46 µM. In addition, the TGI in experiment [1] is 55.1 µM; in experiment [2], 18.3 µM; in experiment [3], more than 100 µM; in experiment [5], 11.1 µM; in experiment [6] it was 85.6 µM; in experiment [7], 7.33 µM. Further, the TGI was more than 100 µM in [8] and 24 µM in experiment [9].
On to `NCCCCC1NC(=O)C(CC(=O)O)NC(=O)CNC(=O)C(CCCN=C(N)N)NC(=O)C(N)CSSCC(C(=O)O)NC(=O)C(CC(=O)O)NC(=O)C2CCCN2C(=O)CNC1=O` (stereo not drawn), for which the GI50 in [1], in experiment [2], in [3], in experiment [5], in [6] and in [7] was more than 100 µM in each case. Moreover, the GI50 in experiment [8] and in [9] was more than 100 µM throughout. In addition, the TGI in experiment [1], in experiment [2], in experiment [3], in experiment [5], in [6] and in experiment [7] was more than 100 µM each time. For the same molecule, the TGI in [8] and in [9] was more than 100 µM each time.
As for `O=c1cccccc1NCCCCCCCNc1cccccc1=O`, the TGI is more than 100 µM in experiment [1]; more than 100 µM in experiment [2]; 53.4 µM in experiment [4]; more than 100 µM in [5]; 55.1 µM in experiment [10]; more than 100 µM in experiment [6]. Also, the TGI in experiment [7], in experiment [8] and in experiment [9] was more than 100 µM in each case.
As for `O=c1c2cc(-c3ccccc3)sc2ncn1Cc1ccc(Cl)c(Cl)c1`, the GI50 is 16.3 µM in experiment [1]; 40.6 µM in [3]; 18.9 µM in experiment [4]; 15.8 µM in experiment [5]; 36.8 µM in [10]; 26 µM in [6]. Moreover, the GI50 in experiment [7] was 12.2 µM; in [8], 26.8 µM; in experiment [9], more than 100 µM. For the same molecule, the TGI in experiment [1] is more than 100 µM; in experiment [3], more than 100 µM; in [4], 54.9 µM; in experiment [5], 36.2 µM; in [10] it was more than 100 µM; in experiment [6], 80.3 µM. The TGI was 57.3 µM in experiment [7], more than 100 µM in experiment [8] and more than 100 µM in experiment [9].
Take `CC1=C2C(=CC(C)(C)[C@@H]2O)C(=O)[C@](C)(O)C12CC2`: the GI50 in experiment [1] is 0.0409 µM; in [2], 0.0486 µM; in experiment [3], 0.025 µM and 0.0147 µM; in experiment [4], 0.0137 µM; in experiment [5] it was 0.00835 µM; in experiment [6], 0.00973 µM. The GI50 is 0.0196 µM in experiment [7]; 0.0523 µM in experiment [8]; 0.00597 µM and 0.0168 µM in [9]. Also, the TGI in experiment [1] was 0.17 µM and 0.221 µM; in experiment [2], 0.112 µM and 0.054 µM; in experiment [3], 0.0706 µM and 0.0319 µM; in [4] it was 0.134 µM and < 0.0208 µM; in experiment [5], 0.0327 µM and 0.0422 µM; in experiment [6], 0.0727 µM and 0.0659 µM. The TGI in [7] is 0.0525 µM and 0.0223 µM; in experiment [8] it was 0.371 µM and 0.279 µM; in experiment [9], 0.0976 µM and 0.131 µM.
Take `CCc1cccc(C)c1N1C(=O)C(=O)C(c2nc3ccccc3o2)C(=O)C1=O`: the TGI in [1], in experiment [2], in [4], in experiment [5], in experiment [10] and in [6] was more than 100 µM each time. The TGI in experiment [7], in experiment [8] and in [9] was more than 100 µM in each case.
`COc1ccc(OC(C(=O)O)C(C)C)c2c1CCCC2=O` (stereo not drawn): the TGI in [1], in [2], in [4], in experiment [5], in experiment [10] and in [6] was more than 100 µM in each case. For the same molecule, the TGI in experiment [7], in [8] and in experiment [9] was more than 100 µM in each case.
Consider `O=c1cc(-c2ccc(O)cc2)oc2cc(O[C@@H]3O[C@H](CO)[C@@H](O)[C@H](O)[C@H]3O)cc(O)c12`, for which the TGI in [1], in [3], in [4], in [5], in experiment [10] and in experiment [6] was more than 100 µM throughout. Moreover, the TGI in experiment [7], in experiment [8] and in experiment [9] was more than 100 µM throughout.
Consider `CC1CN(S(=O)(=O)c2oc(-c3ccc(Cl)cc3)nc2C#N)CC(C)O1` (stereo not drawn), for which the GI50 in experiment [1] is 7.34 µM; in experiment [2], 1.57 µM; in experiment [3], 1.89 µM; in experiment [4], 1.19 µM; in experiment [5], 1.56 µM; in experiment [6] it was 1.93 µM. Moreover, the results for the GI50 in experiment [7], in experiment [8] and in experiment [9] were 4.1 µM, 12.5 µM and 1.36 µM, respectively. For the same molecule, the TGI worked out at 27.9 µM in [1]; 2.96 µM in [2]; 4.01 µM in experiment [3]; 4.5 µM in experiment [4]; 3.12 µM in experiment [5]; 4.14 µM in experiment [6]. In addition, the TGI worked out at 14.6 µM in [7], 25 µM in experiment [8] and 3.09 µM in experiment [9].
On to `C#CCNC(=O)ON1C(=O)CCC1=O`, for which the TGI in experiment [1], in experiment [2], in experiment [4], in [5], in [10] and in experiment [6] was more than 100 µM in each case. Further, the TGI in [7], in experiment [8] and in experiment [9] was more than 100 µM each time.
For the molecule `Cc1ccc(S(=O)(=O)N=NC=C2c3ccccc3N(O)c3ccccc32)cc1`, the TGI in [1] worked out at 40 µM; in [2], 25.5 µM; in experiment [4], 4.11 µM; in experiment [5], 30 µM; in experiment [10], 3.68 µM; in [6] it was 19.5 µM. For the same molecule, the results for the TGI in experiment [7], in experiment [8] and in [9] were 17.8 µM, 24.2 µM and 14.7 µM, respectively.
`N/C(=N\NS(=O)(=O)c1ccccc1)Oc1ccc(Br)cc1Br`: the TGI in experiment [1], in experiment [2], in experiment [4], in experiment [5], in experiment [10] and in experiment [6] was more than 100 µM throughout. Also, the TGI is more than 100 µM in experiment [7], more than 100 µM in experiment [8] and 24.3 µM in experiment [9].
For `COc1ccc(Nc2nc3ccccc3c3occc23)cc1`, the GI50 in experiment [1] was 9.96 µM; in experiment [3], 1.63 µM; in [5] it was 7.85 µM; in experiment [10] it was 8.35 µM; in experiment [6], 6.55 µM; in [7] it was 8.68 µM. Also, the GI50 in [8] is 7.62 µM; in experiment [9], 4.06 µM. Moreover, the TGI in experiment [1] was more than 50 µM; in [3], 5.59 µM; in [5] it was more than 50 µM; in experiment [10], 22.6 µM; in experiment [6], 14.4 µM; in experiment [7] it was 22.5 µM. For the same molecule, the TGI in [8] came to 16.5 µM; in experiment [9], 11 µM.
For `CCC(C)Oc1nc2c(c(=O)n(C)c(=O)n2C)n1C` (stereo not drawn), the GI50 in experiment [1], in experiment [2], in experiment [3], in experiment [4], in [5] and in experiment [6] was more than 100 µM each time. The GI50 in experiment [7], in [8] and in [9] was more than 100 µM in each case. Also, the TGI in experiment [1], in [2], in [3], in experiment [4], in experiment [5] and in experiment [6] was more than 100 µM each time. The TGI in experiment [7], in experiment [8] and in [9] was more than 100 µM each time.
